Results as given in US20120190719A1, “METHODS OF TREATING MOTOR DISORDERS WITH ALPHA-2B ANDRENERGIC RECEPTOR AGONISTS” (ALLERGAN, INC., priority 2009, published 2012).
Marks after values point to notes of the source that are not given here.

Tested on: C57B/6 male mice
Assay: Defensive burying (marble burying task)
Format: in vivo
Details: WT mice; 300 ug/kg IP 30 minutes prior to defensive burying testing; marbles buried more than 2/3 after 30 minutes; N = 6/group; vehicle 46.40%
Text: The usefulness of alpha-2B receptor agonists in treating compulsive disorders are exemplified in a widely-used rodent model of compulsive behavior, the marble burying task. Absence of alpha2B receptor activity, either following treatment with an alpha2B receptor antagonist or in alpha2B receptor knockout mice, results in increased compulsive behavior in the marble burying task. […] Two alpha2B agonists used by the inventors, each belonging to a different compound class, are: Compound A, an imidazole thione, and Compound B, an imidazole amine.
Defensive burying: C57B/6 male mice (25-30 g) individually placed into plexiglass mouse cages filled with standard mouse bedding in their housing room. Each cage contained 7 small marbles (diameter 1 cm) and 7 larger marbles (diameter 1.5 cm). Mice remained in the cages for 30 minutes, after which time they were removed from their home cage and the number of marbles buried more than ⅔ was counted. Animals in treatment groups (Table 3) were administered compound IP (1 ml/kg) 30 min prior to testing.
For Table 2, data were evaluated by One-way ANOVA for overall effect of genotype [F(4,57)=4.155; P=0.0053]. Because the 2B WT is the only control for the 2B KO, an unpaired T-test was used to compare differences between 2B WT and 2B KO. For Table 3, data were evaluated by unpaired T-Test.

Structure (SMILES): CN1CCc2c(C#N)c(N)n(C)c(=S)c2C1 [Compound C]
- % Buried: 61.90%**
